In patent publication US9487561B2, “Biologically active complex and its preparation” (HAMLET PHARMA AB, priority 2010, dated 2016):
Entries after “also recorded” stand apart in the source; their conditions may differ.

B1: HAMLET (protein, UniProt P00709 20-142, looked up)
Alpha-lactalbumin: KQFTKCELSQLLKDIDGYGGIALPELICTMFHTSGYDTQAIVENNESTEYGLFQISNKLWCKSSQVPQSRNICDISCDKFLDDDITDDIMCAKKILDIKGIDYWLAHKALCTEKLEQWLCEKL
modifications: oleic acid complex

Key:
[1] = test system: potassium channels in A549, lung carcinoma cell lines; experiment: FLUXOR potassium (K^+) channel assay, Thallium (Tl^+) indicator; format: cell-based, human; conditions: HAMLET 35 μM; for effect of channel blocker on K^+ flux in response to HAMLET: carcinoma cells, 30 minutes pretreatment; for potassium channel activity (fluorescence signal): oleate 175 μM (5× the HAMLET concentration), peptides mixed with oleate and immediately added
Experimental: The FLUXOR™ potassium (K^+) channel assay was performed on the TECAN infinite F200 (Tecan Group, Switzerland), according to the manufacturer's instructions (Invitrogen). Briefly, this involved FLUXOR™ loading buffer (Hank's Balanced Saline Solution, (HBSS) buffered with 20 mM HEPES and pH adjusted to 7.4 with NaOH. POWERLOAD™ concentrate and water-soluble Probenecid were used respectively to enhance the dye solubility and retention, respectively. Media were removed from the cell plates manually, and 80 μL of loading buffer containing the FLUXOR™ dye mix was applied to each well. Once inside the cell, the nonfluorescent AM ester form of the FLUXOR™ dye is cleaved by endogenous esterases into a thallium-sensitive indicator. The dye was loaded for 60 minutes at room temperature and then removed with the supernatant. After washing with dye-free PBS buffer, a final volume of 80 μL assay buffer containing water-soluble probenecid was added. Cells received one of the following channel inhibitors: 3.3 μL per well of 30 mM amiloride, 3.0 μL of 32 mM BaCl2, 1.8 μL of 5.4 mM gadolinium, 3 μL 3.2 mM tetrandrine and 2.3 μL of 2.6 mM ruthenium red, and were then incubated at room temperature (23-25° C.) for 30 minutes to allow equilibration of the test compounds. Prior to injection, stimulation buffer was prepared from the chloride-free buffer and thallium reagents provided in the kit as well as HAMLET, to achieve a final added concentrations of 2 mM free Tl+ and 35 μM HAMLET after 1:5 dilution upon injection of the stimulus buffer onto cells that had been loaded with FLUXOR™ dye.
To distinguish Ca^2+ mobilization from intracellular stores from the influx of extracellular Ca^2+, EGTA was then added to the cell medium. […] K^+ fluxes across tumor cell membranes were subsequently quantified under the same experimental conditions, using the fluorophore FLUXOR™, which fluoresces after thallium has entered cells through K^+ channels.
Potassium channel activity was therefore measured in A549, lung carcinoma cell lines using an indicator, which emits fluorescence signal upon entering the cells via opened potassium channels, Thallium (Tl^+) indicator (FIG. 18).

[2] = test system: A549 lung carcinoma cells; experiment: global transcriptional response, whole genome arrays (Affymetrix); format: cell-based, human
Experimental: For the microarray analysis with ion channel inhibitors, 200,000 A549 cells/well were allowed to adhere overnight on a 6-well plate. After 1 hour of HAMLET treatment, the cells were lysed and RNA was extracted using the RNeasy Mini Kit (QIAGEN). The samples were sent to AROS Applied Biotechnology (Århus, Denmark) for analysis. Data was preprocessed using RMA implemented in the free software packages “affy” as provided by R and Bioconductor (<www.r-project.org>). Differentially expressed genes were identified using empirically Bayes adjusted t-statistics and characterized using the Functional Annotation Clustering Tool in the Database for Annotation, Visualization and Integrated Discovery (DAVID), (Dennis et al., 2003 Genome Biology 4(5): P3) and Ingenuity Pathway Analysis (Ingenuity Systems). All microarray data were registered into NCBI's Gene Expression Omnibus (GEO) database (<www.ncbi.nlm.nih.gov/projects/geo>) with accession numbers GSE23772.
To understand the mechanisms of carcinoma cell death and the contribution of ion channel activation, the global transcriptional response to HAMLET was examined, using whole genome arrays. A549 lung carcinoma cells were exposed to HAMLET (21 μM) for one hour and cells pretreated with amiloride were compared to cells in medium alone. […] An unbiased global overview of transcription was obtained by performing a hierarchical clustering of the top 3000 genes by variance and was visualized in a heatmap (FIG. 2D and FIG. 13). Genes with empirical Bayes adjusted p-values <0.05 and log 2 fold changes >1 were considered differentially expressed and were functionally characterized using Database for Annotation, Visualization and Integrated Discovery, (Dennis et al., supra, 2003) and Ingenuity Pathway Analysis.
In total 12 RNA samples were generated (triplicate of control, oleic Acid, HAMLET, and oleate-treated) and hybridized to Affymetrix Whole Genome microarrays U219. […] For statistical analysis normalized data were linear model fitted and Empirical Bayesian analysis, coupled with p-value adjustment, performed.

[3] = Example 5, Affymetrix U219, adjusted p-value <0.05 and log 2-foldchange of 1

Molecule	effect of channel blocker on K^+ flux in response to HAMLET [1]	effect of inhibitor alone on transcription [2]	number of differentially expressed genes in response to HAMLET in cells pretreated with inhibitor ([2]; HAMLET 21 μM, one hour) [genes]	potassium channel activity (fluorescence signal) [1]	number of differentially expressed genes [2, 3] [genes]	global transcriptional response (heatmap, top 3000 genes by variance) ([2]; FIG. 7B)	number of differentially expressed genes ([2]; HAMLET 21 μM, one hour, no inhibitor, adjusted p-values <0.05, log 2 fold changes >1) [genes]
NC(N)=NC(=O)c1nc(Cl)c(N)nc1N [amiloride, 3,5-diamino-6-chloro-N-(diaminomethylene)pyrazine-2-carboxamide]	intermediate inhibition	no significant effect on transcription	52				
[Ba+2].[Cl-].[Cl-] [BaCl2, barium chloride]	intermediate inhibition						
CCCCCCCC/C=C\CCCCCCCC(=O)[O-].[Na+] [oleate, sodium oleate]				potassium channels were activated by oleate alone, but at lower efficiency than HAMLET	426	very similar transcriptional response	
B1				rapidly opened the K^+ channels; also recorded: triggers a rapid potassium flux	336		336
